Test system: apolipoprotein E-deficient mice
Assay: Determination of areas of pathological changes appearing in the aorta (atherosclerotic lesions and macrophage area in the aortic valve)
Assay type: in vivo
Settings: male apolipoprotein E-deficient mice, compounds mixed with diet (Compound A 0.03 w/w %, Compound B 0.0001 w/w %) for 12 weeks, average ± standard error; for Rate of area occupied with macrophage: anti-MOMA-2 positive area relative to lesion area
From the text: Determination of Areas of Pathological Changes Appearing in the Aorta
Male apolipoprotein E-deficient mice of 12 weeks of age were divided into 4 groups (10 mice per a group) as follows: control group, group treated with 5-[4-(6-methoxy-1-methylbenzimidazol-2-yl-methoxy)benzyl]thiazolidine-2,4-dione hydrochloride (mixed with diet at a concentration of 0.0001 w/w %, hereinafter referred to as Compound B), group treated with N-(1-octyl-5-carboxymethyl-4,6-dimethylindolin-7-yl)-2,2-dimethylpropanamide hemisulfate (mixed with diet at a concentration of 0.03 w/w %, hereinafter referred to as Compound A), and co-administration group of Compound B (mixed with diet at a concentration of 0.0001 w/w %) and Compound A (mixed with diet at a concentration of 0.03 w/w %). All mice were treated with compounds mixed with diet except the control group for 12 successive weeks. The mice were autopsied in the 12th week and the area of atherosclerotic lesions in the aortic valve and the ratio of the area occupied by macrophages in the same area (positively stained area with anti-MOMA-2) were determined.
(1) Areas of Atherosclerotic Lesions in the Aorta
The aortic valve was stained with elastic-Masson and the area of atherosclerotic lesions in the aortic valve determined. Less-stained areas indicate greater inhibitory effects of the agents on the atherosclerotic lesions as well as suppressive action of the agents against progressive development of atherosclerotic lesions in the aorta.
(2) Rate of Area Occupied by Macrophages
Macrophages in the aortic valve were detected by staining with anti-MOMA-2. Areas occupied by macrophages in the aortic valve were determined and the ratio of the area occupied by macrophages (positively stained areas with anti-MOMA-2) to the area of atherosclerotic lesions in the aortic valve was calculated.
Macrophages are a factor to make plaques unstable. Thus decreases in macrophage accumulation increase plaque stability and are related to amelioration of the atherosclerotic lesions.
The actual measurement value in Table 1 indicates average ± standard error.

| Molecule | Rate of area occupied with macrophage | Area of atherosclerotic lesions (elastic-Masson stain) |
| --- | --- | --- |
| COc1ccc2nc(COc3ccc(CC4SC(=O)NC4=O)cc3)n(C)c2c1.Cl (stereo not drawn) [Compound B, 5-[4-(6-methoxy-1-methylbenzimidazol-2-yl-methoxy)benzyl]thiazolidine-2,4-dione hydrochloride] | 23.3 ± 4.1% | 80616 ± 11611 μm^2 |
| N-(1-octyl-5-carboxymethyl-4,6-dimethylindolin-7-yl)-2,2-dimethylpropanamide hemisulfate [Compound A] | 13.7 ± 2.2% | – |
